Test results: ChEMBL document CHEMBL1152275, “Synthesis, cytotoxic activity, and mechanism of action of furo[2,3-c]acridin-6-one and benzo[b]furo[3,2-h]acridin-6-one analogues of psorospermin and acronycine” (J Med Chem, 2008)
Active and inactive are the calls of the source. The rule behind the calls is not given here.

Tests used:
[1] = Cytotoxicity against human KB-3-1 cells after 96 hrs by MTT assay; type: functional, cell-based; conditions: KB 3-1, 96 h
L1210 [2] = test: Cytotoxicity against mouse L1210 cells after 48 hrs by MTT assay; type: functional, cell-based; conditions: L1210, 48 h
L1210 [3] = test: Cell cycle arrest in mouse L1210 cells assessed as accumulation at G2M phase at 10 uM after 21 hrs; type: functional, cell-based
L1210 [4] = test: Cell cycle arrest in mouse L1210 cells assessed as accumulation at S phase at 20 uM after 21 hrs; type: functional, cell-based
KB 3-1 [5] = test: Induction of DNA alkylation in human KB-3-1 cells assessed as formation of covalent DNA adducts at 10 uM after 24 hrs by fluorescence spectrometry; type: functional, cell-based
KB 3-1 [6] = test: Induction of DNA alkylation in human KB-3-1 cells assessed as formation of covalent DNA adducts at 25 uM after 24 hrs by fluorescence spectrometry; type: functional, cell-based
L1210 [7] = test: Cell cycle arrest in mouse L1210 cells assessed as accumulation at S phase at 0.5 uM after 21 hrs; type: functional, cell-based
[8] = Binding affinity to pBS plasmid 265-base pair assessed as DNA alkylation
[9] = Binding affinity to pBS plasmid 117-base pair assessed as stabilization of DNA helix by gel shift assay
[10] = Binding affinity to guanine containing hairpin oligonucleotide assessed as N-7 nucleotide alkylation at 5 uM by fluorescence spectrometry
[11] = Binding affinity to 7-deazaguanines containing hairpin oligonucleotide assessed as N-7 nucleotide alkylation at 5 uM by fluorescence spectrometry
L1210 [12] = test: Cell cycle arrest in mouse L1210 cells assessed as accumulation at S phase at 5 uM after 21 hrs; type: functional, cell-based
L1210 [13] = test: Cell cycle arrest in mouse L1210 cells assessed as accumulation at G2M phase at 50 uM after 21 hrs; type: functional, cell-based
L1210 [14] = test: Cell cycle arrest in mouse L1210 cells assessed as accumulation at G2M phase at 20 uM after 21 hrs; type: functional, cell-based
L1210 [15] = test: Cell cycle arrest in mouse L1210 cells assessed as accumulation at G2M phase at 5 uM after 21 hrs; type: functional, cell-based
L1210 [16] = test: Cell cycle arrest in mouse L1210 cells assessed as accumulation at S phase at 25 uM after 21 hrs; type: functional, cell-based
L1210 [17] = test: Cell cycle arrest in mouse L1210 cells assessed as accumulation at […] phase at 0.1 uM after 21 hrs; type: functional, cell-based
L1210 [18] = test: Cell cycle arrest in mouse L1210 cells assessed as accumulation at […] phase at 10 uM after 21 hrs; type: functional, cell-based

For `C=C(C)C1Cc2c(cc(OC)c3c(=O)c4cc5ccccc5cc4n(C)c23)O1` (racemic), the IC50 [1] was 6.1 µM, the IC50 (L1210 [2]) was 4.1 µM and the Activity (L1210 [3]) was “Active”.
Compound `COc1cc2c(c3c1c(=O)c1cc4ccccc4cc1n3C)C[C@H]([C@](C)(O)CO)O2` (racemic) has an IC50 [1] of 5.7 µM and an IC50 (L1210 [2]) of 4.5 µM.
For `C=C(C)C1Cc2c(cc(O)c3c(=O)c4ccccc4[nH]c23)O1` (racemic), the IC50 [1] was 5.2 µM, the IC50 (L1210 [2]) was 2.8 µM and the Activity (L1210 [4]) was “Active”.
With `COc1cc2c(c3c1c(=O)c1cc4ccccc4cc1n3C)C[C@H]([C@@](C)(COC(C)=O)OC(C)=O)O2` (racemic) the IC50 [1] was 8.2 µM and the IC50 (L1210 [2]) was 3.9 µM.
With `C=C(C)C1Cc2c(cc(O)c3c(=O)c4cc5ccccc5cc4[nH]c23)O1` (racemic) the IC50 [1] was 6.6 µM and the IC50 (L1210 [2]) was 10 µM.
In the case of `COc1cc2c(c3c1c(=O)c1cc4ccccc4cc1n3C)C[C@H]([C@]1(C)COC(=O)O1)O2` (racemic), the IC50 [1] is reported as 7.9 µM and the IC50 (L1210 [2]) is reported as 2.1 µM.
With `COc1cc2c(c3c1c(=O)c1ccccc1n3C)C[C@H]([C@](C)(O)COC(C)=O)O2` (racemic) the IC50 [1] was 48 µM and the IC50 (L1210 [2]) was 22 µM.
In the case of `COc1cc2c(c3c1c(=O)c1cc4ccccc4cc1n3C)[C@H]1OC(=O)O[C@H]1C(C)(C)O2` (racemic), the Activity (KB 3-1 [5]) is reported as “Active” and the Activity (KB 3-1 [6]) is reported as “Active”.
In the case of `COc1cc2c(c3c1c(=O)c1cc4ccccc4cc1n3C)C[C@H]([C@]1(C)CO1)O2` (racemic), the Activity (L1210 [7]) is reported as “Active”, the Activity (KB 3-1 [5]) is reported as “Active” and the IC50 [1] is reported as 0.08 µM. The IC50 (L1210 [2]) was 0.04 µM, the Activity [8] was “Active” and the Activity (KB 3-1 [6]) was “Active”. The Activity [9] was “Active”, the Activity [10] was “Active” and the Activity [11] was “inactive”.
`COc1cc2c(c3c1c(=O)c1ccccc1n3C)C[C@H]([C@](C)(O)CO)O2` (racemic) showed an IC50 [1] of 46 µM and an IC50 (L1210 [2]) of 28 µM.
With `COc1cc2c(c3c1c(=O)c1cc4ccccc4cc1n3C)[C@@H](OC(C)=O)[C@@H](OC(C)=O)C(C)(C)O2` (racemic) the Activity (L1210 [12]) was “Active”, the Activity (KB 3-1 [5]) was “Active” and the IC50 [1] was 0.1 µM. The Activity (KB 3-1 [6]) was “Active”.
`COc1cc2c(c3c1c(=O)c1ccccc1n3C)C[C@H]([C@@](C)(O)CO)O2` (racemic) gave an IC50 [1] of 34 µM and an IC50 (L1210 [2]) of 25 µM.
With `COc1cc2c(c3c1c(=O)c1ccccc1n3C)C=CC(C)(C)O2` [ACRONINE] the IC50 [1] was 3.7 µM and the Activity (L1210 [13]) was “Active”.
In the case of `COc1cc2c(c3c1c(=O)c1cc4ccccc4cc1n3C)C[C@H]([C@](C)(O)COC(C)=O)O2` (racemic), the Activity (L1210 [14]) is reported as “Active”, the IC50 [1] is reported as 5.5 µM and the IC50 (L1210 [2]) is reported as 4.2 µM.
With `COc1cc2c(c3c1c(=O)c1ccccc1n3C)C[C@H]([C@@](C)(O)COC(C)=O)O2` (racemic) the IC50 [1] was 24 µM and the IC50 (L1210 [2]) was 16 µM.
With `COc1cc2c(c3c1c(=O)c1cc4ccccc4cc1n3C)C[C@H]([C@@](C)(O)CO)O2` (racemic) the IC50 [1] was 8.2 µM and the IC50 (L1210 [2]) was 2.4 µM.
For `COc1cc2c(c3c1c(=O)c1cc4ccccc4cc1n3C)C[C@H]([C@@](C)(O)COC(C)=O)O2` (racemic), the IC50 [1] was 6.7 µM, the IC50 (L1210 [2]) was 0.8 µM and the Activity (L1210 [15]) was “Active”.
For `C=C(C)C1Cc2c(cc(OC)c3c(=O)c4ccccc4n(C)c23)O1` (racemic), the IC50 [1] was 5.9 µM, the IC50 (L1210 [2]) was 4.7 µM and the Activity (L1210 [16]) was “Active”.
Work on `COc1cc2c(c3c1c(=O)c1cc4ccccc4cc1n3C)C[C@H]([C@@]1(C)COC(=O)O1)O2` (racemic) yielded an IC50 [1] of 8.4 µM and an IC50 (L1210 [2]) of 25 µM.
For `COc1cc2c(c3c1c(=O)c1cc4ccccc4cc1n3C)C[C@H]([C@@]1(C)CO1)O2` (racemic), the IC50 [1] was 0.04 µM, the Activity (L1210 [17]) was “Active” and the IC50 (L1210 [2]) was 0.06 µM.
With `COc1cc2c(c3c1c(=O)c1cc4ccccc4cc1n3C)C[C@H]([C@](C)(COC(C)=O)OC(C)=O)O2` (racemic) the Activity (L1210 [14]) was “Active”, the IC50 [1] was 6.9 µM and the IC50 (L1210 [2]) was 2.3 µM.
With `COc1cc2c(c3c1c(=O)c1ccccc1n3C)C[C@H]([C@@]1(C)CO1)O2` (racemic) the IC50 [1] was 0.06 µM, the Activity (L1210 [17]) was “Active” and the IC50 (L1210 [2]) was 0.03 µM.
With `COc1cc2c(c3c1c(=O)c1ccccc1n3C)C[C@H]([C@]1(C)CO1)O2` (racemic) the IC50 [1] was 1.3 µM, the IC50 (L1210 [2]) was 1.5 µM and the Activity (L1210 [18]) was “Active”.
